The text below walks through data of patent publication US8236826B2, “Diarylether derivatives as antitumor agents” (Otsuka Pharmaceutical Co., Ltd., priority 2005, dated 2012).

Series [1] concerns human breast cancer cells (ZR-75-1). Briefly: Anti-proliferative effect on human breast cancer cells, sulforhodamine B method. It counts as cell-based. The following applies: ZR-75-1 cells. The text has this: (§1) Anti-proliferative effect of test compounds on human hepatic cancer cells (HuH-7), human lung cancer cells (EBC-1), human colorectal cancer cells (HCT116), human prostatic cancer cells (22Rv1), human pancreatic cancer cells (MIA PaCa-2), human stomach cancer cells (MKN45), human breast cancer cells (ZR-75-1) was checked by a sulforhodamine B method in accordance with Skehan P et al. (J. Natl. Cancer Inst. 1990 Jul. 4; 82(13): 1107-12). Explanation will be made taking HuH-7 cells as an example.
(§2) HuH-7 cells were seeded on DMEM medium (Dulbeco's modified Eagle Medium) containing 10% fetal bovine serum of a 96-well microplate and cultured at 37° C. for 24 hours in the presence of 5% carbon dioxide gas (CO2). Thereafter, a test compound was added to the wells and the cells were cultured for a further 5 days. […]
(§3) To each of the wells, a 1% aqueous acetic acid solution containing 0.4% sulforhodamine B was added and the wells were allowed to stand still at room temperature for 20 to 30 minutes. […] Subsequently, OD (optical density) was measured at a measurement wavelength of 492 nm and a reference wavelength of 690 nm to obtain the difference (A) in OD thus measured. Furthermore, the OD of a control well (containing no cells) was measured at a measurement wavelength of 492 nm and a reference wavelength of 690 nm to obtain the difference (B) in OD. […]

The subject of series [2] is human prostatic cancer cells (22Rv1). Briefly: Anti-proliferative effect on human prostatic cancer cells, sulforhodamine B method. Format: cell-based. The following applies: 22Rv1 cells.
Description: as §1, §2, §3

Series [3] relates to human colorectal cancer cells (HCT116). Put plainly: Anti-proliferative effect on human colorectal cancer cells, sulforhodamine B method. It counts as cell-based. To be noted: HCT-116.
Description: as §1, §2, §3
On the technique in general: The SRB assay estimates cell density from bound dye.

Series [4] relates to human stomach cancer cells (MKN45). Briefly: Anti-proliferative effect on human stomach cancer cells, sulforhodamine B method. Format: cell-based. To be noted: MKN-45.
Description: as §1, §2, §3

The test system of series [5] is human renal cancer cells (Caki-2). Put plainly: Anti-proliferative effect on human renal cancer cells, sulforhodamine B method. The following applies: Caki-2 cells. Format: cell-based.
Series [6] relates to human hepatic cancer cells (HuH-7). Briefly: Anti-proliferative effect on human hepatic cancer cells, sulforhodamine B method. The following applies: 120 h, HuH-7 cells, cultured 5 days with compound. It counts as cell-based.
Description: as §1, §2, §3

Series [7] relates to human multiple myeloma cells (IM-9). Put plainly: Anti-proliferative effect on human multiple myeloma cells, MTT assay. The following applies: IM-9 cells. Format: cell-based. As for the experimental part: [The source words this procedure for another cell line and reports this cell line under the same test.] (§4) Anti-proliferative effect of test compounds on human chronic myelogenous leukemia cells (KU812) was determined by an MTT assay in accordance with the method described in Singh A K et al. (Cancer Lett. 1996 Oct. 1; 107(1): 109-15). To describe more specifically, KU812 cells were seeded on RPMI 1640 medium containing 10% fetal bovine serum of a 96-well microplate, cultured at 37° C. for 24 hours in the presence of a 5% carbon dioxide gas (CO2). Thereafter, a test compound was added to the wells and the cells were cultured for a further 5 days. After the incubation, 10 μl of 5 mg/mL MTT ([…]) was added to the wells. After the cells were cultured for 4 hours, 100 μl of 0.01N HCl containing 10% SDS (sodium dodecyl sulfate) was added to the wells, which was further cultured overnight. Subsequently, OD was measured at a measurement wavelength of 570 nm and a reference wavelength of 690 nm to obtain the difference (A) in OD. Furthermore, OD of a control well (containing no cells) was measured at a measurement wavelength of 570 nm and a reference wavelength of 690 nm to obtain the difference (B) in OD. The difference (A−B) was regarded as the cell proliferation activity of each of the wells. […]

Series [8] concerns human chronic myelogenous leukemia cells (KU812). Briefly: Anti-proliferative effect on human chronic myelogenous leukemia cells, MTT assay. It counts as cell-based. To be noted: 120 h, cultured 5 days with compound. As for the experimental part:
as §4
(Formazan colour is commonly taken as a measure of viable cells.)

Series [9] deals with human lung cancer cells (EBC-1). Put plainly: Anti-proliferative effect on human lung cancer cells, sulforhodamine B method. Format: cell-based. The following applies: EBC-1 cells.
Description: as §1, §2, §3

Series [10] has as its system human pancreatic cancer cells (MIA PaCa-2). Briefly: Anti-proliferative effect on human pancreatic cancer cells, sulforhodamine B method. Format: cell-based. To be noted: MIA PaCa-2 cells.
Description: as §1, §2, §3

Series [11] concerns human acute myelogenous leukemia cells (KG-1). Briefly: Anti-proliferative effect on human acute myelogenous leukemia cells, MTT assay. Format: cell-based. To be noted: KG-1 cells. The method, then: [The source words this procedure for another cell line and reports this cell line under the same test.] as §4

A value given as a limit tells only on which side of the number the result lay.

What is called IC50 is the concentration that gives 50% inhibition. As for `O=C(Nc1ccc(Oc2ccc(CCC(=O)N3CCN(Cc4ccc5c(c4)OCO5)CC3)cc2)nc1)c1ccc(C(F)(F)F)cc1` [Example 1039, N-(6-{4-[3-(4-piperonylpiperazin-1-yl)-3-oxopropyl]phenoxy}pyridin-3-yl)-4-trifluoromethylbenzamide], the IC50 is below 1000 nM in series [1]; below 100 nM in [2]; below 100 nM in series [3]; below 100 nM in series [4]; below 100 nM in series [5]; below 100 nM in [6]. Besides, the IC50 in [7], in [8], in series [9], in series [10] and in series [11] was below 100 nM in each case.

For orientation: melting point means the temperature, or range, at which the solid turns liquid. Regarding `O=C(Nc1ccc(Oc2ccc(N3CCN(S(=O)(=O)c4ccccc4)CC3)cc2)cc1)c1ccc(Cl)c(Cl)c1` [Example 2031, N-{4-[4-(4-benzenesulfonylpiperazin-1-yl)phenoxy]phenyl}-3,4-dichlorobenzamide], the melting point was 191 to 192 °C.

The compound `O=C(Nc1ccc(Oc2ccc(N3CCN(C(=O)COc4ccccc4)CC3)cc2)cc1)c1ccc(Cl)c(Cl)c1` [Example 2052] registered a melting point of 171 to 173 °C. On the same count and under the same terms, next, `O=C(Nc1ccc(Oc2ccc(N3CCN(C(=O)COc4ccc5c(c4)OCO5)CC3)cc2)cc1)c1ccc(Cl)c(Cl)c1` [Example 2053]: 116 to 118 °C; `Cc1cc(N(C)CC(=O)N2CCN(C(=O)c3ccc4c(c3)OCO4)CC2)ccc1Oc1ccc(NC(=O)c2ccc(Cl)c(Cl)c2)cn1` [Example 2054]: 133 to 135 °C.

`CC(=O)N(c1ccc(CCC(=O)N2CCN(Cc3ccc4c(c3)OCO4)CC2)cc1)c1ccc(NC(=O)c2ccc(Cl)c(Cl)c2)cn1` [Example 2099, N-[6-(Acetyl{4-[3-oxo-3-(4-piperonylpiperazin-1-yl)propyl]phenyl}amino)pyridin-3-yl]-3,4-dichlorobenzamide] registered a melting point of 150 to 165 °C. `O=C(Nc1ccc(Oc2ccc(C3=CCN(CCCn4ccnc4)CC3)cc2)cc1)c1ccc(Cl)c(Cl)c1` [Example 2486, 3,4-Dichloro-N-(4-{4-[1-(3-imidazole-1-ylpropyl)-1,2,3,6-tetrahydropyridine-4-yl]phenoxy}phenyl)-benzamide] gave a melting point of 169 to 171 °C. Compound `O=C(Nc1ccc(Oc2ccc(N3CCN(C(=O)CN4CCOCC4)CC3)cc2)cc1)c1ccc(Cl)c(Cl)c1` [Example 2559] registered a melting point of 177 to 178 °C. For `O=C(CN1CCOCC1)c1ccc(Oc2ccc(NC(=O)c3ccc(Cl)c(Cl)c3)cc2F)cc1` [Example 2563], the melting point was in the range of 177 to 178 °C. In turn, `O=C(Nc1ccc(Oc2ccc(C3=CCN(C(=O)CN4CCOCC4)CC3)cc2)cc1)c1ccc(Cl)c(Cl)c1` [Example 2565] gave a melting point of 195 to 197 °C. Regarding `CN(C(=O)CN1CCOCC1)C1CCN(c2ccc(Oc3ccc(NC(=O)c4ccc(Cl)c(Cl)c4)cc3)cc2)CC1` [Example 2572], the melting point lay in the range of 157 to 160 °C. In the case of `Cc1cc(N2CCC(CC(=O)N3CCN(Cc4ccc5c(c4)OCO5)CC3)CC2)ccc1Oc1ccc(NS(=O)(=O)c2ccc(C(F)(F)F)cc2)cn1` [Example 2703, N-[6-(4-{4-[2-(4-piperonylpiperazin-1-yl)-2-oxoethyl]piperidin-1-yl}-2-methylphenoxy)pyridin-3-yl]-4-trifluoromethylbenzenesulfonamide], the melting point was in the range of 156 to 158 °C. With `O=C(C1CCN(c2ccc(Oc3ccc(NS(=O)(=O)c4ccc(Cl)c(Cl)c4)cn3)cc2)CC1)N1CCN(Cc2ccccc2)CC1` [Example 2710, N-(6-{4-[4-(4-benzylpiperazine-1-carbonyl)piperidin-1-yl]phenoxy}pyridin-3-yl)-3,4-dichlorobenzenesulfonamide], the melting point lay in the range of 185 to 189 °C.

In turn, `Cc1cc(N(C)CC(=O)N2CCN(Cc3ccc4c(c3)OCO4)CC2)ccc1Oc1ccc(NC(=O)c2ccc(-n3cccc3)cc2)cn1` [Example 2711, N-[6-(4-{[2-(4-piperonylpiperazin-1-yl)-2-oxoethyl]methylamino}-2-methylphenoxy)pyridin-3-yl]-4-pyrrole-1-ylbenzamide] had a melting point of 163.1 to 166.5 °C. As for `CCN(CC(=O)N1CCN(Cc2ccc3c(c2)OCO3)CC1)c1ccc(Oc2ccc(NS(=O)(=O)c3ccc(C(F)(F)F)cc3)cn2)c(F)c1` [Example 2712, N-[6-(4-{[2-(4-piperonylpiperazin-1-yl)-2-oxoethyl]ethylamino}-2-fluorophenoxy)pyridin-3-yl]-4-trifluoromethylbenzenesulfonamide], the melting point lay within 177.8 to 180.1 °C.
